# Like-named read-outs stand apart in the source and are kept apart here.
# What was measured:
# Assay type in all cases: physicochemical
# [1] = Interconversion study of potassium salt Form 1 and Form 2 (slurry of equal amounts); conditions: slurry in MeOH/EA and acetone/water, RT or 50° C.
# Protocol: Interconversion study were performed in MeOH/EA (1/9, RT or 50° C.) and acetone/water (20/1, RT or 50° C.). Equal amounts of Form 1 and Form 2 were slurried in specified solvents at different temperatures for certain time.
# [2] = Solid state stability at 60° C. and 40° C./75% RH for 7 days (HPLC purity, XRPD); conditions: for Purity at Day 7 (Area %) 40° C./75% RH: 7 days at 40° C./75% RH; for Purity at Day 7 (Area %) 40° C./75% RH / Purity at Day 7 (Area %) 60° C.: HPLC; for Purity at Day 7 (Area %) 60° C.: 7 days at 60° C.; for XRPD 40° C./75% RH: crystal form after 7 days at 40° C./75% RH; for XRPD 60° C.: crystal form after 7 days at 60° C.; for Initial Purity (Area %): day 0, HPLC
# Protocol: HPLC analysis was performed with an Agilent HPLC 1260 series instrument.
# Appropriate amount of free acid Form I, potassium salts Form 1 and Form 2, and sodium salt Form A were placed at 60° C. and 40° C./75% RH for 7 days. At 0 and 7 days, the samples were dissolved in diluent to prepare a solution of 0.5 mg/mL for HPLC purity analysis. Solid samples were analyzed by XRPD to check the crystal form.
# [3] = Dynamic Vapor Sorption (DVS); conditions: for hygroscopicity: DVS; for crystal form of solid after the DVS study: XRPD after DVS; for water uptake / weight gain by DVS: at 80% RH (Form I: 0 to 80% RH), 25° C.
# Protocol: Dynamic Vapor Sorption (DVS): Moisture sorption/desorption data was collected on a IGASorp DVS. The sample was placed into a tarred sample chamber and weighed automatically. The sample was dried at 50° C. until the % RH was less than 0.3% and cooled to 25° C. Set the instrument parameters as below.
# [4] = Water activity study of potassium salt Form 1 in MeOH/water; conditions: for Result (XRPD form): 24 h
# Protocol: Form 1 was further tested to determine the influence of water on the crystalline form. Thus, 15 mg of potassium salt Form 1 was added into 0.3 mL of MeOH/water (with various amounts of water), and then the suspension was kept stirring at 25° C. for 24 h. The solid was collected by filtration and characterized by XRPD.
# [5] = Physical stability upon grinding and high humidity; conditions: for crystal form (XRPD) after grinding / crystallinity after grinding: ground manually, up to 5 min
# Protocol: Physical stability of Form I was evaluated upon grinding and high humidity (RT/92.5% RH for 24 days). For mechanical treatment study, Form I (10 mg) was ground manually for 5 min, and the sample was analyzed by XRPD after grinding for 2 and 5 min, respectively.
# [6] = Solubility in water and bio-relevant media at 37° C. (HPLC of filtrate, pH of filtrate, XRPD of filter cake); conditions: for solubility at 2 h / solubility at 24 h / solubility at 0.5 h: thermodynamic from solid; for solubility at 2 h / solubility at 24 h / Solubility (mg/mL) 0.5 h / Solubility (mg/mL) 2 h / Solubility (mg/mL) 24 h / solubility at 0.5 h: 37° C.; for solubility at 2 h: read-out: Solubility (mg/mL) 2 h; for solubility at 24 h: read-out: Solubility (mg/mL) 24 h; for XRPD: filter cake obtained at 2 or 24 hours; for PH 0.5 h / PH 2 h / PH 24 h: pH of the filtrate; for solubility at 0.5 h: read-out: Solubility (mg/mL) 0.5 h
# Protocol: Solubility of Form I of free acid, Form 1 and Form 2 of potassium salt, and Form A of sodium salt were tested in water and in bio-relevant media of Simulated Intestinal Fluid (SIF), Simulated Gastric Fluid (SGF), Fasted State Simulated Intestinal Fluid (FaSSIF), and Fed State Simulated Intestinal Fluid (FeSSIF) at 37° C. up to 24 hours. About 12 mg of the sample was weighed into sample vials and then 1.5 mL of each media was added to make suspensions respectively. All suspensions were shaken at 37° C. with 200 rpm.
# [7] = Slurry study of Form II at 50° C.; conditions: MeOH, ACN, acetone, EA and water at 50° C., after 1 day
# Protocol: In addition, slurry study of Form II was performed in MeOH, ACN, acetone, EA and water at 50° C., respectively.
# [8] = FeSSIF (Fed State Simulated Intestinal Fluid), 37 °C, fessif, FeSSIF
# [9] = water, 37 °C, water, Water, LOQ is 0.5 μg/mL
compound,measurement,setting,value
Cc1nn(-c2cc(Cl)c(Oc3cc(C(C)C)c(=O)[nH]n3)c(Cl)c2)c(=O)[n-]c1=O.[K+] [Potassium salt Form 1],relative stability of Form 1 and Form 2,[1],more stable in non-aqueous system
same,chemical and physical stability,[2]; 40° C./75% RH and 60° C. for 7 days,chemically and physically stable
same,Purity at Day 7 (Area %) 40° C./75% RH,[2],99.29 Area %
same,Purity at Day 7 (Area %) 60° C.,[2],99.50 Area %
same,XRPD 40° C./75% RH,[2],Unchanged
same,XRPD 60° C.,[2],Unchanged
same,Initial Purity (Area %),[2],99.23 Area %
same,DVS Water % at 80% RH,"[3]; 80% RH, forms of potassium salt of Compound 1",1.8%
same,hygroscopicity,[3],slight hygroscopic
same,crystal form of solid after the DVS study,[3],remained unchanged
same,water uptake / weight gain by DVS,[3],1.8%
same,Result (XRPD form),"[4]; MeOH/water (80/20), Aw 0.3598, 25° C.",Form 1 + 2
same,Result (XRPD form),"[4]; MeOH/water (86/14), Aw 0.2679, 25° C.",Form 1 + 2
same,Result (XRPD form),"[4]; MeOH/water (90/10), Aw 0.1998, 25° C.",Form 1 + 2
same,Result (XRPD form),"[4]; MeOH/water (95/5), Aw 0.1058, 25° C.",Form 2
same,Result (XRPD form),"[4]; MeOH/water (97/3), Aw 0.065, 25° C.",Form 2
same,Result (XRPD form),"[4]; MeOH/water (99/1), Aw 0.021, 25° C.",Form 1 + 2
same,Result (XRPD form),"[4]; MeOH/water (99.5/0.5), Aw 0.010, 25° C.",Form 1
same,Result (XRPD form),"[4]; MeOH/water (100/0), Aw 0, 25° C.",Form 1
same,water activity at which Form 1 has the tendency to convert to Form 2,"[4]; after 24 h, 0.5% of water content",> 0.01
same,crystal form (XRPD) after grinding,[5],remained unchanged
same,crystallinity after grinding,[5],decreased
same,solubility at 2 h,"[6]; FaSSIF (Fasted State Simulated Intestinal Fluid), 37 °C, fassif, FaSSIF, LOQ is 0.5 μg/mL",0.013 mg/mL
same,solubility at 24 h,"[6]; FaSSIF (Fasted State Simulated Intestinal Fluid), 37 °C, fassif, FaSSIF",0.0064 mg/mL
same,Solubility (mg/mL) 0.5 h,"[6]; FaSSIF, LOQ is 0.5 μg/mL",<LOQ
same,solubility at 2 h,[6]; [8],0.0089 mg/mL
same,solubility at 24 h,[6]; [8],0.013 mg/mL
same,Solubility (mg/mL) 0.5 h,[6]; FeSSIF,0.0017 mg/mL
same,Solubility (mg/mL) 0.5 h,"[6]; SGF, LOQ is 0.5 μg/mL",<LOQ
same,Solubility (mg/mL) 2 h,"[6]; SGF, LOQ is 0.5 μg/mL",<LOQ
same,Solubility (mg/mL) 24 h,"[6]; SGF, LOQ is 0.5 μg/mL",<LOQ
same,Solubility (mg/mL) 0.5 h,"[6]; SIF, LOQ is 0.5 μg/mL",<LOQ
same,Solubility (mg/mL) 2 h,"[6]; SIF, LOQ is 0.5 μg/mL",<LOQ
same,Solubility (mg/mL) 24 h,"[6]; SIF, LOQ is 0.5 μg/mL",<LOQ
same,XRPD,[6]; FaSSIF,Free acid
same,XRPD,[6]; FeSSIF,Free acid
same,XRPD,[6]; SGF,Free acid
same,XRPD,[6]; SIF,Free acid
same,XRPD,[6]; Water,Free acid
same,PH 0.5 h,[6]; FaSSIF,7.03
same,PH 2 h,[6]; FaSSIF,7.36
same,PH 24 h,[6]; FaSSIF,8.29
same,PH 0.5 h,[6]; FeSSIF,5.06
same,PH 2 h,[6]; FeSSIF,5.21
same,PH 24 h,[6]; FeSSIF,5.24
same,PH 0.5 h,[6]; SGF,1.18
same,PH 2 h,[6]; SGF,1.26
same,PH 24 h,[6]; SGF,1.25
same,PH 0.5 h,[6]; SIF,7.52
same,PH 2 h,[6]; SIF,7.52
same,PH 24 h,[6]; SIF,7.44
same,PH 0.5 h,[6]; Water,11.02
same,PH 2 h,[6]; Water,11.00
same,PH 24 h,[6]; Water,10.57
same,solubility at 0.5 h,[6]; [9],5.79 mg/mL
same,solubility at 2 h,[6]; [9],5.28 mg/mL
same,solubility at 24 h,[6]; [9],5.15 mg/mL
"Cc1nn(-c2cc(Cl)c(Oc3cc(C(C)C)c(=O)[nH]n3)c(Cl)c2)c(=O)[nH]c1=O [Free acid Form I, 2-(3,5-dichloro-4-((5-isopropyl-6-oxo-1,6-dihydropyridazin-3-yl)oxy)phenyl)-6-methyl-1,2,4-triazine-3,5(2H,4H)-dione]",Purity at Day 7 (Area %) 40° C./75% RH,[2],96.42 Area %
same,Purity at Day 7 (Area %) 60° C.,[2],96.47 Area %
same,XRPD 40° C./75% RH,[2],Unchanged
same,XRPD 60° C.,[2],Unchanged
same,Initial Purity (Area %),[2],96.45 Area %
same,hygroscopicity,[3],slightly hygroscopic
same,crystal form of solid after the DVS study,[3],remained unchanged
same,water uptake / weight gain by DVS,[3],0.9%
same,form change upon high humidity,[5]; RT/92.5% RH for 24 days,no form change was observed
same,crystal form (XRPD) after grinding,[5],remained unchanged
same,crystallinity after grinding,[5],significantly decreased
same,solubility at 24 h,"[6]; FaSSIF (Fasted State Simulated Intestinal Fluid), FaSSIF",0.00052 mg/mL
same,Solubility (mg/mL) 0.5 h,"[6]; FaSSIF, LOQ is 0.5 μg/mL",<LOQ
same,Solubility (mg/mL) 2 h,"[6]; FaSSIF, LOQ is 0.5 μg/mL",<LOQ
same,Solubility (mg/mL) 0.5 h,"[6]; SGF, LOQ is 0.5 μg/mL",<LOQ
same,Solubility (mg/mL) 2 h,"[6]; SGF, LOQ is 0.5 μg/mL",<LOQ
same,Solubility (mg/mL) 24 h,"[6]; SGF, LOQ is 0.5 μg/mL",<LOQ
same,Solubility (mg/mL) 0.5 h,"[6]; SIF, LOQ is 0.5 μg/mL",<LOQ
same,Solubility (mg/mL) 2 h,"[6]; SIF, LOQ is 0.5 μg/mL",<LOQ
same,Solubility (mg/mL) 24 h,"[6]; SIF, LOQ is 0.5 μg/mL",<LOQ
same,Solubility (mg/mL) 0.5 h,"[6]; Water, LOQ is 0.5 μg/mL",<LOQ
same,Solubility (mg/mL) 2 h,"[6]; Water, LOQ is 0.5 μg/mL",<LOQ
same,Solubility (mg/mL) 24 h,"[6]; Water, LOQ is 0.5 μg/mL",<LOQ
same,XRPD,[6]; FaSSIF,unchanged
same,XRPD,[6]; SGF,unchanged
same,XRPD,[6]; SIF,unchanged
same,XRPD,[6]; Water,unchanged
same,PH 0.5 h,[6]; FaSSIF,6.72
same,PH 2 h,[6]; FaSSIF,6.60
same,PH 24 h,[6]; FaSSIF,6.74
same,PH 0.5 h,[6]; FeSSIF,4.91
same,PH 2 h,[6]; FeSSIF,4.86
same,PH 24 h,[6]; FeSSIF,5.00
same,PH 0.5 h,[6]; SGF,1.17
same,PH 2 h,[6]; SGF,1.19
same,PH 24 h,[6]; SGF,1.16
same,PH 0.5 h,[6]; SIF,6.89
same,PH 2 h,[6]; SIF,6.86
same,PH 24 h,[6]; SIF,6.79
same,PH 0.5 h,[6]; Water,6.48
same,PH 2 h,[6]; Water,6.59
same,PH 24 h,[6]; Water,6.44
same,solubility at 0.5 h,[6]; FeSSIF,0.00056 mg/mL
same,solubility at 2 h,[6]; FeSSIF,0.001 mg/mL
same,solubility at 24 h,[6]; FeSSIF,0.0011 mg/mL
Cc1nn(-c2cc(Cl)c(Oc3cc(C(C)C)c(=O)[nH]n3)c(Cl)c2)c(=O)[nH]c1=O [Form II],form conversion in slurry,[7],completely converted to Form I

# Reference: patent publication US12715858B2, “Pyridazinone compounds” (INVENTISBIO CO., LTD., priority 2020, dated 2026)
